According to ChEMBL document CHEMBL1201862, “PubChem BioAssay data set” (2004):
The source made the active and inactive calls.

Columns and labels:
Format in all cases: functional
[1] = target: Multidrug resistance protein CDR2 (Candida albicans (strain SC5314 / ATCC MYA-2876) (Yeast), UniProt P78595); test: CaCDR2 efflux pump inhibitors in yeast, dose response, S. cerevisiae AD1-8u, singleplex, Cherry Pick1 hits (AID 588604)
[2] = target: Multidrug resistance protein CDR1 (Candida albicans, UniProt P43071); test: CaCDR1 efflux pump inhibitors in yeast, dose response, S. cerevisiae AD1-8u, singleplex, Cherry Pick1 hits (AID 588606)
[3] = target: Benomyl/methotrexate resistance protein (Candida albicans, UniProt P28873); test: CaMdr1 efflux pump inhibitor potency, dose response, singleplex, Cherry Pick1 hits (AID 588608)
[4] = target: Melanin-concentrating hormone receptor 1 (Homo sapiens, UniProt Q99705); test: Late-stage fluorescence-based counterscreen for antagonists of the G-protein coupled receptor 7 (GPR7): cell-based dose response assay to identify antagonists of the melanin-concentrating hormone receptor 1 (MCHR1) Set 5.
[5] = target: Neuropeptides B/W receptor type 1 (Homo sapiens, UniProt P48145); test: GPR7 antagonist potency, late-stage follow-up, cell-based, fluorescence, dose response, set 5 (AID 588566)
[6] = target: Dual specificity protein kinase CLK4 (Homo sapiens, UniProt Q9HAZ1)
[7] = target: T1, Serine/threonine-protein kinase D3 (Homo sapiens, UniProt O94806);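 note: determined within a kinase panel screen, with PRKCN as the panel member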
T1 sequence (O94806 whole entry): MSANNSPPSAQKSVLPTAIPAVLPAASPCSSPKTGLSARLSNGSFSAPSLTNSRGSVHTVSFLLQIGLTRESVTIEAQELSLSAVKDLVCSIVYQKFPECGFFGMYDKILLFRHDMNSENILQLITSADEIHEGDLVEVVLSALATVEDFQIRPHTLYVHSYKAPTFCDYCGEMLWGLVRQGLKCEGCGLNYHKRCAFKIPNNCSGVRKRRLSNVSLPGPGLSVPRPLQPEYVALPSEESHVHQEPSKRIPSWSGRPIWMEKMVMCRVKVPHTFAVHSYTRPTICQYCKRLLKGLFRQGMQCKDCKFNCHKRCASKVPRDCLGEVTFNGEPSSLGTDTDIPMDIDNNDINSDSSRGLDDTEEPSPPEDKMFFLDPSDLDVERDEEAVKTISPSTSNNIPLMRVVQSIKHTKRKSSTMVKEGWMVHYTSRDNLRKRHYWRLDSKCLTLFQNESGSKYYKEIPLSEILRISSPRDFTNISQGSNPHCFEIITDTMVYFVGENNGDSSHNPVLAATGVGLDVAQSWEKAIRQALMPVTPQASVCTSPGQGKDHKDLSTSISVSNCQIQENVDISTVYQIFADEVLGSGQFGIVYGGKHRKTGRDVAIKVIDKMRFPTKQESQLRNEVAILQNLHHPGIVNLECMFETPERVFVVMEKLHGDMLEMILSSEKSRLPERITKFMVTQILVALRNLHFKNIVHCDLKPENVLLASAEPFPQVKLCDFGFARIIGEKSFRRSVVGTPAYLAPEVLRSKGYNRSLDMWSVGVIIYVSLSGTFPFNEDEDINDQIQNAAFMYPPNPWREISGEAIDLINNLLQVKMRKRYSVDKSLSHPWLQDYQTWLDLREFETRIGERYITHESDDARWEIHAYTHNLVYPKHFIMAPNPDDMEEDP

[8] = target: Leucine-rich repeat serine/threonine-protein kinase 2 (Homo sapiens, UniProt Q5S007);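 note: value from a broad kinome-wide panel profiling study in which LRRK2 was one of the kinases tested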
[9] = target: Ribosomal protein S6 kinase alpha-3 (Homo sapiens, UniProt P51812);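 note: measured within a kinome-wide profiling panel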
[10] = target: Vascular endothelial growth factor receptor 1 (Homo sapiens, UniProt P17948);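 note: measured within a kinome-wide profiling panel, FLT1 as the panel member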
[11] = target: T2, Tyrosine-protein kinase receptor TYRO3 (Homo sapiens, UniProt Q06418);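 note: TYRO3 value obtained as one member of a kinome-wide profiling panel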
T2 sequence (Q06418 whole entry): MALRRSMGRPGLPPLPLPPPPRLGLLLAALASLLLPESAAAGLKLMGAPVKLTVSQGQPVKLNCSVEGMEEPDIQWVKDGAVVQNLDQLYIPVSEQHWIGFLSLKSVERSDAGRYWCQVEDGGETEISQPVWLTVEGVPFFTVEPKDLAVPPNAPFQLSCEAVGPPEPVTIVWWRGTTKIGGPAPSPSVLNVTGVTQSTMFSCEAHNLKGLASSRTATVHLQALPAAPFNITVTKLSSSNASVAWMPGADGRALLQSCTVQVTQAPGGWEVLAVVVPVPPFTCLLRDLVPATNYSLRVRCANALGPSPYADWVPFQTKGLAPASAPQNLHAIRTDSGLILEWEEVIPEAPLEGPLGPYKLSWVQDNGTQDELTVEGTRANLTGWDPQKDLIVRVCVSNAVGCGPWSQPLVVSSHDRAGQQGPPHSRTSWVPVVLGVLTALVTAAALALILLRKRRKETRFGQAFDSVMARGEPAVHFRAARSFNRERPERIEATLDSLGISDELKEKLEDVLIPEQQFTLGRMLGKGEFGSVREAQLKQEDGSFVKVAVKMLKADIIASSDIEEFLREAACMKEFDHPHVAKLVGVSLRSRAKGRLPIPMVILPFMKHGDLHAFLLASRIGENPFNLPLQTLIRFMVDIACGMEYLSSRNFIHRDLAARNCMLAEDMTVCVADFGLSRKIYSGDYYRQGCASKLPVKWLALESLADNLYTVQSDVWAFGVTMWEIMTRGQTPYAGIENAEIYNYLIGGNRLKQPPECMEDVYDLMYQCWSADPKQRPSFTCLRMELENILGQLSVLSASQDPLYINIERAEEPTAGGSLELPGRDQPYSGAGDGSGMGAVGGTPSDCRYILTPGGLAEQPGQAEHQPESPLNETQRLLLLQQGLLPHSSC

[12] = target: Vascular endothelial growth factor receptor 2 (Homo sapiens, UniProt P35968)
[13] = target: Macrophage colony-stimulating factor 1 receptor (Homo sapiens, UniProt P07333);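 note: value comes from the Navigating the Kinome screening panel, CSF1R member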
[14] = target: ALK tyrosine kinase receptor (Homo sapiens, UniProt Q9UM73);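 note: ALK tested as one member of a kinase panel screen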
[15] = target: T3, Serine/threonine-protein kinase Chk1 (Homo sapiens, UniProt O14757);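 note: measured as one member of a kinome-wide kinase profiling panel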
T3 sequence (O14757 whole entry): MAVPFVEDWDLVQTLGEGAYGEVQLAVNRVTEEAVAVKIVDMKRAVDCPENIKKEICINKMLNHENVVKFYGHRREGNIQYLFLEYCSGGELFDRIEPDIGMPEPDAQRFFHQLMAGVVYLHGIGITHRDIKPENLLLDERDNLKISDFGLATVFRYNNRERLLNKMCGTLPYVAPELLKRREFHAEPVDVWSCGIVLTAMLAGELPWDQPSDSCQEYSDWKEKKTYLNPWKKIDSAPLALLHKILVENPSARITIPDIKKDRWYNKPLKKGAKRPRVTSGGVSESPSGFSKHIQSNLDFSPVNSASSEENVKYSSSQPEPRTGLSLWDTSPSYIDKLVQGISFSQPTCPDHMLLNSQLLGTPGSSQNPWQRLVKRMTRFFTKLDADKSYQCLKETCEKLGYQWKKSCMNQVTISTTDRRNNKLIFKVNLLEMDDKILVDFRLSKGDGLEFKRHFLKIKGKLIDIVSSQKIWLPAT

[16] = target: Death-associated protein kinase 3 (Homo sapiens, UniProt O43293);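 note: measured as one member of a kinome-wide profiling panel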
[17] = target: Cyclin-dependent kinase 5 (Homo sapiens, UniProt Q00535);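 note: CDK5 measured as one member of a kinase profiling panel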
[18] = target: Serine/threonine-protein kinase TBK1 (Homo sapiens, UniProt Q9UHD2); test: Navigating the Kinome. Panel member name: TBK1
[19] = target: LIM domain kinase 1 (Homo sapiens, UniProt P53667); test: Navigating the Kinome. Panel member name: LIMK1
[20] = target: Fibroblast growth factor receptor 1 (Homo sapiens, UniProt P11362)
[21] = target: Cyclin-dependent kinase 7 (Homo sapiens, UniProt P50613);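 note: value comes from a kinome-wide kinase profiling panel in which CDK7 is one member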
[22] = target: Dual specificity tyrosine-phosphorylation-regulated kinase 1B (Homo sapiens, UniProt Q9Y463); test: Navigating the Kinome. Panel member name: DYRK1B
[23] = target: Casein kinase I isoform alpha (Homo sapiens, UniProt P48729)
[24] = target: Proto-oncogene tyrosine-protein kinase receptor Ret (Homo sapiens, UniProt P07949);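 note: measured within a kinome-wide profiling panel, RET as the panel member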
[25] = target: Aurora kinase B (Homo sapiens, UniProt Q96GD4)
[26] = target: Mitogen-activated protein kinase kinase kinase kinase 4 (Homo sapiens, UniProt O95819)
[27] = target: Cyclin-dependent kinase 8 (Homo sapiens, UniProt P49336); test: Navigating the Kinome. Panel member name: CDK8
[28] = target: Leukocyte tyrosine kinase receptor (Homo sapiens, UniProt P29376); test: Navigating the Kinome. Panel member name: LTK
Chain of Leukocyte tyrosine kinase receptor (P29376 whole entry): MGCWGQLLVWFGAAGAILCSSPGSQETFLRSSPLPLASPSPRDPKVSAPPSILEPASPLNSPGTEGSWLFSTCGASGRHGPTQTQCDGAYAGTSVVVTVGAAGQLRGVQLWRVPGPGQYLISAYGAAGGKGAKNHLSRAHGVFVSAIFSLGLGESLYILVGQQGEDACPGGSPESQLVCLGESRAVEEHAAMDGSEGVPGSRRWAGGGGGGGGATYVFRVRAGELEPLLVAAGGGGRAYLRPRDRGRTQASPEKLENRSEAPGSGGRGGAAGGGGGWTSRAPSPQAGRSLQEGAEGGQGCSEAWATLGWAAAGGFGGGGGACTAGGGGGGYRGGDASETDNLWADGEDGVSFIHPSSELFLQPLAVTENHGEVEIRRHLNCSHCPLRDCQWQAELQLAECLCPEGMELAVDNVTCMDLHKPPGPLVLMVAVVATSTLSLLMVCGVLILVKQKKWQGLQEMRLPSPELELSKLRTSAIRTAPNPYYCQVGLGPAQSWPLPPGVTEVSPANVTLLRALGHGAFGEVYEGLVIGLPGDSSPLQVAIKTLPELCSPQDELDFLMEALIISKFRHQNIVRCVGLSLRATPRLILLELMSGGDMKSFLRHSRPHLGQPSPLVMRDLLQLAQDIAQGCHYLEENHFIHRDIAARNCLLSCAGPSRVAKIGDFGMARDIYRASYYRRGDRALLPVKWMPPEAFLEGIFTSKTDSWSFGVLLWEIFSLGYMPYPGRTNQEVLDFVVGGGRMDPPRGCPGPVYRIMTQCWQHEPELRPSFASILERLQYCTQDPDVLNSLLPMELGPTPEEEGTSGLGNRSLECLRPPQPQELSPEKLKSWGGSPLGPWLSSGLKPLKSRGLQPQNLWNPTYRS

Chain of Vascular endothelial growth factor receptor 1 (P17948 whole entry): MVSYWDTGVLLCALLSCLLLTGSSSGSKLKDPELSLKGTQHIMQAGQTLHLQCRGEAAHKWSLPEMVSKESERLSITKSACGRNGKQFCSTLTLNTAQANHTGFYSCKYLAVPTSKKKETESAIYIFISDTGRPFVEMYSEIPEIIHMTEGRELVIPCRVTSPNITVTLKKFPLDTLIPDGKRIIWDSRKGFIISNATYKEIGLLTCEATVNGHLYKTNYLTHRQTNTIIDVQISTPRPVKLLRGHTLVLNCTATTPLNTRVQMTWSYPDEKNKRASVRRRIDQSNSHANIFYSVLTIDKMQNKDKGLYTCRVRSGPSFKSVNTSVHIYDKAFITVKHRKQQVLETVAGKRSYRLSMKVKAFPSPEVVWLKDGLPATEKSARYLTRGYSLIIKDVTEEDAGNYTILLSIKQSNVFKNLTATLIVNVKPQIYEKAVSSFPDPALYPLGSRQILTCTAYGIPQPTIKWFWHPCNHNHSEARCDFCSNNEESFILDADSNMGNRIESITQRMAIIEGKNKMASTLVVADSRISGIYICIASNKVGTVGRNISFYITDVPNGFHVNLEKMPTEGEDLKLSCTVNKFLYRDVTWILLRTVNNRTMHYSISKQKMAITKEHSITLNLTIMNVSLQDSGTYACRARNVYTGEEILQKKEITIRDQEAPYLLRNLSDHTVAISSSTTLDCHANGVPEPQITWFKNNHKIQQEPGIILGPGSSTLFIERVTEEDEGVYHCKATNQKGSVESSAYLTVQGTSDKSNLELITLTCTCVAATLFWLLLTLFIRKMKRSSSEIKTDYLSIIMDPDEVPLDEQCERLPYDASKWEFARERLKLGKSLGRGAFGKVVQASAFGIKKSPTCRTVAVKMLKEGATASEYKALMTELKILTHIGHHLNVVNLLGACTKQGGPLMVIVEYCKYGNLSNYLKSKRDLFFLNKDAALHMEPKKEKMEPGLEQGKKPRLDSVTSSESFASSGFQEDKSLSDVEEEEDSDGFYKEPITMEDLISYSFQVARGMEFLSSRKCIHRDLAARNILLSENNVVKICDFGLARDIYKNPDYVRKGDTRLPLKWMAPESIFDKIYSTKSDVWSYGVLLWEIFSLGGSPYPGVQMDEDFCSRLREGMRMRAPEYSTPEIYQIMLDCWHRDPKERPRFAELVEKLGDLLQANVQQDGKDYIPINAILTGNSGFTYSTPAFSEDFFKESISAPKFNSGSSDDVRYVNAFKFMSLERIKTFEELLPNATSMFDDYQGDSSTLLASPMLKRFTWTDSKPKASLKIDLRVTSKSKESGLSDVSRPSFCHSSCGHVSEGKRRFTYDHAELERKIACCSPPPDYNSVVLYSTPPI
Chain of Multidrug resistance protein CDR2 (P78595 whole entry): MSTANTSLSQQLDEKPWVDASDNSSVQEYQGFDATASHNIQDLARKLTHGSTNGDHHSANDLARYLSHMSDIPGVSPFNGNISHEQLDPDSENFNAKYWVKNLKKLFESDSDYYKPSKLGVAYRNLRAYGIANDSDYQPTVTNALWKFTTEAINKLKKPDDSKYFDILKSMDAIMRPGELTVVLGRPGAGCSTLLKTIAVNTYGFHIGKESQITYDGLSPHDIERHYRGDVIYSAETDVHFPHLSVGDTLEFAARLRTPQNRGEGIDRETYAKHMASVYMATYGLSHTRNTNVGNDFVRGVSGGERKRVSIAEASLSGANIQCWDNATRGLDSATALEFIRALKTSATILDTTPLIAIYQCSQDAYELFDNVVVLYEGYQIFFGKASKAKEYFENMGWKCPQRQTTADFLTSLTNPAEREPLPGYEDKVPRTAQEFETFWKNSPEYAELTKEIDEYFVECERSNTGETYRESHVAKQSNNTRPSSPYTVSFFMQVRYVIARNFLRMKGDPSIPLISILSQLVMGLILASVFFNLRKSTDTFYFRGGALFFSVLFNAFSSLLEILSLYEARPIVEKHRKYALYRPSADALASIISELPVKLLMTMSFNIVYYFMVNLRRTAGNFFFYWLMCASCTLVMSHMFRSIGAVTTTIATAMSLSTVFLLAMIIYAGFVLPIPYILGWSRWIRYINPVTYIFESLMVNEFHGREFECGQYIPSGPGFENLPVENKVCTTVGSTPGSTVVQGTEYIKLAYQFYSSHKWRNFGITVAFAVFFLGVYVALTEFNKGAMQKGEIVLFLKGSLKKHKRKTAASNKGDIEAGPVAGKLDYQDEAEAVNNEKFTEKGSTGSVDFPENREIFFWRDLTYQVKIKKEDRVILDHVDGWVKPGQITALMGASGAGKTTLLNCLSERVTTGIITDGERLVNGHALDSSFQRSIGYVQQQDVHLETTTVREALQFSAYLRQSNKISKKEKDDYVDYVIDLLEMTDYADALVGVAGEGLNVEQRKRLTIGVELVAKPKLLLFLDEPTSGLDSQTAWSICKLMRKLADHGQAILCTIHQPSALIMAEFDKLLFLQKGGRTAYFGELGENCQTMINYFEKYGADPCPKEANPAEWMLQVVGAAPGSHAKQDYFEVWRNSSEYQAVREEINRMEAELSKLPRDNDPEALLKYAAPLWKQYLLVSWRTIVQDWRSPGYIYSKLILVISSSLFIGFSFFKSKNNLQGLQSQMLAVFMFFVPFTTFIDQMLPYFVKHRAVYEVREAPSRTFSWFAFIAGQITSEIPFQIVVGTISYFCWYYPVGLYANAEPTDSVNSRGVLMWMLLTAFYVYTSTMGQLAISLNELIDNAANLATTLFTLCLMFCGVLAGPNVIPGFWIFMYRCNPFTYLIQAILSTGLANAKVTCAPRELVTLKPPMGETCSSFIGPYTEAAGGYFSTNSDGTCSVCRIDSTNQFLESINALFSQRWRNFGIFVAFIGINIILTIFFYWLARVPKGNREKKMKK
Chain of Vascular endothelial growth factor receptor 2 (P35968 whole entry): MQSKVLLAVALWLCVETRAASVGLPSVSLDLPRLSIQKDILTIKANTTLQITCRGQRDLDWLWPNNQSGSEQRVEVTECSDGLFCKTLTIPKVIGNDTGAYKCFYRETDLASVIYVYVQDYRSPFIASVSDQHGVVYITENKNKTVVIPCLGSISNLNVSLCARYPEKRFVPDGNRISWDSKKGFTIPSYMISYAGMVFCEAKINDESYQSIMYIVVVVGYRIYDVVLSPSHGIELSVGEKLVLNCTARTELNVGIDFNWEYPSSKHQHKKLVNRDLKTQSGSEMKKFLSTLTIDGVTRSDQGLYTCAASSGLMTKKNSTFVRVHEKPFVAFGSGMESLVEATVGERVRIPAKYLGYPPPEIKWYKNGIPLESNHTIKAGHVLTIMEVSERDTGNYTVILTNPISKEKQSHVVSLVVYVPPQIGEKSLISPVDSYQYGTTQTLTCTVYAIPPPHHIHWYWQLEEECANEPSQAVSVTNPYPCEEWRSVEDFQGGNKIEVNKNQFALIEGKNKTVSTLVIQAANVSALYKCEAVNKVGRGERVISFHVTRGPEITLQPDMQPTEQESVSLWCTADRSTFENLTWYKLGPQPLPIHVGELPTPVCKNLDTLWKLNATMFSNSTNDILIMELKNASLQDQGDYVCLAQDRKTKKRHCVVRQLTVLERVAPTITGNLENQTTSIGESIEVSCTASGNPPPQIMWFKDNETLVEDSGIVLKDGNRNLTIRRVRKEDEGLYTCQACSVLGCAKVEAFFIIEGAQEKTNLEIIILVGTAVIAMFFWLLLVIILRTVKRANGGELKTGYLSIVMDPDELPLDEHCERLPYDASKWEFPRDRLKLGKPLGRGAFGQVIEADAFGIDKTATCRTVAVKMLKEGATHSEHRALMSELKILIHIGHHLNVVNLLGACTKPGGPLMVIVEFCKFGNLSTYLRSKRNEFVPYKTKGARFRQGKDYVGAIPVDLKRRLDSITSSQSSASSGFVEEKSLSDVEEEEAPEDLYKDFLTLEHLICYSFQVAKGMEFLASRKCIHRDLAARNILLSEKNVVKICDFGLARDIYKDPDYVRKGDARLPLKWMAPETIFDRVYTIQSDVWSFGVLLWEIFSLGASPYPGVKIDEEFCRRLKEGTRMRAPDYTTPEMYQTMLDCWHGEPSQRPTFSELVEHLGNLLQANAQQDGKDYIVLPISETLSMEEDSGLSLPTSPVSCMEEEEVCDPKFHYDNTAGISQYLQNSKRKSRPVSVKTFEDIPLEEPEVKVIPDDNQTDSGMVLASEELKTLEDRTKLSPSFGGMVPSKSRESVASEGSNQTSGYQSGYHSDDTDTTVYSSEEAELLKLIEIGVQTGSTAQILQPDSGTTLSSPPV

COc1cc(OC)cc(-c2sc3ccc(OC)cc3c2-c2ccc(OCCN3CCOCC3)cc2)c1
active: EC50 [1] 38.5 µM | EC50 [2] 11.3 µM | EC50 [3] 13.7 µM

O=c1c(Cl)c(Oc2ccc3c(c2)OCO3)cnn1Cc1cccc2ccccc12
inactive: IC50 [4] 17.8 µM
active: IC50 [5] 3.3 µM

Nc1ncnc2c1C(=O)NCCN2
active: Ki [6] 25.1 µM | Ki [7] 100 µM | Ki [8] 31.6 µM | Ki [9] 79.4 µM | Ki [10] 25.1 µM | Ki [11] 63.1 µM | Ki [12] 12.6 µM | Ki [13] 79.4 µM | Ki [14] 63.1 µM | Ki [15] 25.1 µM | Ki [16] 15.8 µM | Ki [17] 50.1 µM | Ki [18] 50.1 µM | Ki [19] 20 µM | Ki [20] 100 µM | Ki [21] 63.1 µM | Ki [22] 39.8 µM | Ki [23] 20 µM | Ki [24] 31.6 µM | Ki [25] 31.6 µM | Ki [26] 31.6 µM | Ki [27] 100 µM | Ki [28] 39.8 µM
